The source made the active and inactive calls. No cut-off for these calls is given here.
System: Trypanosoma brucei rhodesiense
Experiment: Antitrypanosomal activity against trypomastigote stage of Trypanosoma brucei rhodesiense STIB 900 assessed as parasite growth inhibition after 72 hrs by Alamar Blue assay
Type: functional, organism-based
Settings: STIB 900, 72 h

| Compound | IC50 [µM] |
| --- | --- |
| CC1(c2ccc(-n3ccnc3)cc2)CO1 (stereo not given) | 76.2 |
| CC(O)(Cn1cnc([N+](=O)[O-])n1)c1ccc(-n2ccnc2)cc1 (stereo not given) | 1.84 |
| O=C(Cn1cnc([N+](=O)[O-])n1)Nc1nnc(-c2ccc(Cl)cc2)s1 | 73.9 |
| O=C(Cn1ccnc1[N+](=O)[O-])c1ccc(-c2ccccc2)cc1 | 76.5 |
| O=[N+]([O-])c1ncn(CC(O)(Cn2cncn2)c2ccc(F)cc2F)n1 (stereo not given) | 26.6 |
| N#Cc1ccc(-c2ccc(NC(=O)Cn3cnc([N+](=O)[O-])n3)cc2)cc1 | 0.336 |
| O=C(Cn1cnc([N+](=O)[O-])n1)Nc1nc(-c2ccc(F)c(F)c2)cs1 | 16.1 |
| O=C(Cn1cnc([N+](=O)[O-])n1)c1ccc(-c2ccccc2)cc1 | 1.75 |
| O=C(Cn1cncn1)c1ccc(-c2ccccc2)cc1 | 51.7 |
| CC(O)(Cn1cncn1)c1ccc(-n2ccnc2)cc1 (stereo not given) | 153 |
| O=C(Cn1ccnc1[N+](=O)[O-])Nc1nc(-c2ccc(F)c(F)c2)cs1 | 10 |

System: Trypanosoma cruzi
Experiment: Antichagasic activity against trypomastigote stage of Trypanosoma cruzi Brazil infected in Balb/c mouse assessed as reduction of parasite level at 15 mg/kg/day, ip measured after 5 days by luciferase reporter gene assay
Type: functional, organism-based
Settings: not given

| Compound | Activity |
| --- | --- |
| N#Cc1ccc(-c2ccc(NC(=O)Cn3cnc([N+](=O)[O-])n3)cc2)cc1 | Active |

System: not listed separately
Experiment: Metabolic stability in human microsomes assessed as compound remaining at 1 uM after 60 mins by LC/MS/MS analysis in presence of NADPH
Type: ADME, Microsome
Settings: read-out: Stability

| Compound | remaining at 1 h, 1 µM [%] |
| --- | --- |
| N#Cc1ccc(-c2ccc(NC(=O)Cn3cnc([N+](=O)[O-])n3)cc2)cc1 | 96.8 |

System: L6
Experiment: Cytotoxicity against rat L6 cells assessed as growth inhibition after 72 hrs by Alamar Blue assay
Type: cell-based
Settings: L6, 72 h

| Compound | IC50 [µM] |
| --- | --- |
| CC1(c2ccc(-n3ccnc3)cc2)CO1 (stereo not given) | 277 |
| CC(O)(Cn1cnc([N+](=O)[O-])n1)c1ccc(-n2ccnc2)cc1 (stereo not given) | > 318 |
| O=C(Cn1cnc([N+](=O)[O-])n1)Nc1nnc(-c2ccc(Cl)cc2)s1 | > 274 |
| O=C(Cn1ccnc1[N+](=O)[O-])c1ccc(-c2ccccc2)cc1 | 9.7 |
| O=[N+]([O-])c1ncn(CC(O)(Cn2cncn2)c2ccc(F)cc2F)n1 (stereo not given) | 258 |
| N#Cc1ccc(-c2ccc(NC(=O)Cn3cnc([N+](=O)[O-])n3)cc2)cc1 | 165 |
| O=C(Cn1cnc([N+](=O)[O-])n1)Nc1nc(-c2ccc(F)c(F)c2)cs1 | 88.1 |
| O=C(Cn1cnc([N+](=O)[O-])n1)c1ccc(-c2ccccc2)cc1 | 220 |
| O=C(Cn1cncn1)c1ccc(-c2ccccc2)cc1 | 113 |
| CC(O)(Cn1cncn1)c1ccc(-n2ccnc2)cc1 (stereo not given) | > 372 |
| O=C(Cn1ccnc1[N+](=O)[O-])Nc1nc(-c2ccc(F)c(F)c2)cs1 | 62.1 |

System: Trypanosoma brucei brucei
Experiment: Antitrypanosomal activity against bloodstream form of Trypanosoma brucei brucei overexpressing type-1 nitroreductase
Type: functional, organism-based
Settings: not given

| Compound | IC50 [µM] |
| --- | --- |
| N#Cc1ccc(-c2ccc(NC(=O)Cn3cnc([N+](=O)[O-])n3)cc2)cc1 | 0.36 |

Target: Sterol 14-alpha demethylase (Trypanosoma cruzi (strain CL Brener), UniProt Q7Z1V1)
Experiment: Binding affinity to recombinant full-length Trypanosoma cruzi CYP51 by UV-spectrophotometric analysis
Settings: read-out: Kd(app)

Sterol 14-alpha demethylase, sequence (Q7Z1V1 whole entry): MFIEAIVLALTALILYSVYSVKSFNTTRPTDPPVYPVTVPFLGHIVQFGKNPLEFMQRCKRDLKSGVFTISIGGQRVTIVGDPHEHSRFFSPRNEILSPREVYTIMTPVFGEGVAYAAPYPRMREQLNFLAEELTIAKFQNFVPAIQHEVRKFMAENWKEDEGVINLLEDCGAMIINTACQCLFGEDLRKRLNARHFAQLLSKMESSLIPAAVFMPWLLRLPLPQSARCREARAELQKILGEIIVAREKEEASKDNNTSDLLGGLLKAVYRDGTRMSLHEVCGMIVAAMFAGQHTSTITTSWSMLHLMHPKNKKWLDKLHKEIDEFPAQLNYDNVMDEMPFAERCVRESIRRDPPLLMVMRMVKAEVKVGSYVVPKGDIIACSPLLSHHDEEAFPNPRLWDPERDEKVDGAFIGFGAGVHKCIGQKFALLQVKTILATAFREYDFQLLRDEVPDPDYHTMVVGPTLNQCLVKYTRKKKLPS

| Compound | Kd [µM] |
| --- | --- |
| O=[N+]([O-])c1ncn(CC(O)(Cn2cncn2)c2ccc(F)cc2F)n1 (stereo not given) | 0.606 |

System: not listed separately
Experiment: Apparent permeability across apical to basolateral side in human Caco2 cells at 10 uM after 2 hrs by LC/MS/MS analysis
Type: ADME, cell-based
Settings: caco-2, 2 h

| Compound | Papp [×10⁻⁶ cm/s] |
| --- | --- |
| N#Cc1ccc(-c2ccc(NC(=O)Cn3cnc([N+](=O)[O-])n3)cc2)cc1 | 18.7 |

System: Trypanosoma cruzi
Experiment: Antichagasic activity against trypomastigote stage of Trypanosoma cruzi Brazil infected in Balb/c mouse assessed as reduction of parasite index at 15 mg/kg/day, ip measured after 10 days by luciferase reporter gene assay relative to control
Type: functional
Set-up: scale not given: the % may be the effect or the level left
Settings: route intraperitoneal

| Compound | Activity [%] |
| --- | --- |
| O=[N+]([O-])c1ncn(CC(O)(Cn2cncn2)c2ccc(F)cc2F)n1 (stereo not given) | <4 |
| N#Cc1ccc(-c2ccc(NC(=O)Cn3cnc([N+](=O)[O-])n3)cc2)cc1 | <4 |

System: Mus musculus
Experiment: Toxicity in Balb/c mouse at 15 mg/kg/day, ip measured after 5 to 10 days
Type: organism-based
Set-up: route intraperitoneal
Settings: in vivo

| Compound | Activity |
| --- | --- |
| O=[N+]([O-])c1ncn(CC(O)(Cn2cncn2)c2ccc(F)cc2F)n1 (stereo not given) | Non-toxic |
| N#Cc1ccc(-c2ccc(NC(=O)Cn3cnc([N+](=O)[O-])n3)cc2)cc1 | Non-toxic |

System: Trypanosoma brucei
Experiment: Activity of his-tagged recombinant Trypanosoma brucei type-1 nitroreductase assessed as oxidized NADH level per mg of protein after 5 mins by absorption spectrum analysis
Settings: not given

| Compound | Activity [nmol/min] |
| --- | --- |
| CC(O)(Cn1cnc([N+](=O)[O-])n1)c1ccc(-n2ccnc2)cc1 (stereo not given) | 3460 |
| O=[N+]([O-])c1ncn(CC(O)(Cn2cncn2)c2ccc(F)cc2F)n1 (stereo not given) | 3060 |
| N#Cc1ccc(-c2ccc(NC(=O)Cn3cnc([N+](=O)[O-])n3)cc2)cc1 | 3170 |

System: Trypanosoma cruzi
Experiment: Activity of his-tagged recombinant Trypanosoma cruzi type-1 nitroreductase assessed as oxidized NADH level per mg of protein after 5 mins by absorption spectrum analysis
Settings: not given

| Compound | Activity [nmol/min] |
| --- | --- |
| CC(O)(Cn1cnc([N+](=O)[O-])n1)c1ccc(-n2ccnc2)cc1 (stereo not given) | 1070 |
| O=[N+]([O-])c1ncn(CC(O)(Cn2cncn2)c2ccc(F)cc2F)n1 (stereo not given) | 1180 |
| N#Cc1ccc(-c2ccc(NC(=O)Cn3cnc([N+](=O)[O-])n3)cc2)cc1 | 888 |

System: Trypanosoma cruzi
Experiment: Antichagasic activity against trypomastigote stage of Trypanosoma cruzi Brazil infected in Balb/c mouse assessed as parasite index at 15 mg/kg/day, ip measured after 5 days by luciferase reporter gene assay
Type: functional
Settings: route intraperitoneal

| Compound | Activity |
| --- | --- |
| O=[N+]([O-])c1ncn(CC(O)(Cn2cncn2)c2ccc(F)cc2F)n1 (stereo not given) | 24.9 |

System: not listed separately
Experiment: Metabolic stability in mouse microsomes assessed as compound remaining at 1 uM after 60 mins by LC/MS/MS analysis in absence of NADPH
Type: ADME, Microsome
Settings: read-out: Stability

| Compound | remaining at 1 h, 1 µM [%] |
| --- | --- |
| N#Cc1ccc(-c2ccc(NC(=O)Cn3cnc([N+](=O)[O-])n3)cc2)cc1 | 110 |

System: Trypanosoma cruzi
Experiment: Antitrypanosomal activity against amastigote stage of Trypanosoma cruzi Tulahuen C4 infected in rat L6 cells assessed as parasite growth inhibition after 96 hrs by colorimetric analysis
Type: functional, organism-based
Settings: Tulahuen C4, L6, 96 h

| Compound | IC50 [µM] |
| --- | --- |
| CC1(c2ccc(-n3ccnc3)cc2)CO1 (stereo not given) | 188 |
| CC(O)(Cn1cnc([N+](=O)[O-])n1)c1ccc(-n2ccnc2)cc1 (stereo not given) | 3.29 |
| O=C(Cn1cnc([N+](=O)[O-])n1)Nc1nnc(-c2ccc(Cl)cc2)s1 | 16.6 |
| O=C(Cn1ccnc1[N+](=O)[O-])c1ccc(-c2ccccc2)cc1 | 14.2 |
| O=[N+]([O-])c1ncn(CC(O)(Cn2cncn2)c2ccc(F)cc2F)n1 (stereo not given) | 1.17 |
| N#Cc1ccc(-c2ccc(NC(=O)Cn3cnc([N+](=O)[O-])n3)cc2)cc1 | 0.138 |
| O=C(Cn1cnc([N+](=O)[O-])n1)Nc1nc(-c2ccc(F)c(F)c2)cs1 | 0.459 |
| O=C(Cn1cnc([N+](=O)[O-])n1)c1ccc(-c2ccccc2)cc1 | 0.188 |
| O=C(Cn1cncn1)c1ccc(-c2ccccc2)cc1 | 22.8 |
| CC(O)(Cn1cncn1)c1ccc(-n2ccnc2)cc1 (stereo not given) | 157 |
| O=C(Cn1ccnc1[N+](=O)[O-])Nc1nc(-c2ccc(F)c(F)c2)cs1 | 3.99 |

System: not listed separately
Experiment: Selectivity index, ratio of IC50 for rat L6 cells to IC50 for amastigote stage of Trypanosoma cruzi Tulahuen C4 infected in rat L6 cells
Type: toxicity, cell-based
Settings: read-out: Ratio IC50

| Compound | selectivity ratio |
| --- | --- |
| CC(O)(Cn1cnc([N+](=O)[O-])n1)c1ccc(-n2ccnc2)cc1 (stereo not given) | > 97 |
| O=C(Cn1cnc([N+](=O)[O-])n1)Nc1nnc(-c2ccc(Cl)cc2)s1 | > 16.5 |
| O=[N+]([O-])c1ncn(CC(O)(Cn2cncn2)c2ccc(F)cc2F)n1 (stereo not given) | 220 |
| N#Cc1ccc(-c2ccc(NC(=O)Cn3cnc([N+](=O)[O-])n3)cc2)cc1 | 1190 |
| O=C(Cn1cnc([N+](=O)[O-])n1)Nc1nc(-c2ccc(F)c(F)c2)cs1 | 192 |
| O=C(Cn1cnc([N+](=O)[O-])n1)c1ccc(-c2ccccc2)cc1 | 1160 |
| O=C(Cn1cncn1)c1ccc(-c2ccccc2)cc1 | 4.9 |
| O=C(Cn1ccnc1[N+](=O)[O-])Nc1nc(-c2ccc(F)c(F)c2)cs1 | 15.6 |

System: not listed separately
Experiment: Selectivity index, ratio of IC50 for rat L6 cells to IC50 for trypomastigote stage of Trypanosoma brucei rhodesiense STIB 900
Type: toxicity, cell-based
Settings: read-out: Ratio IC50

| Compound | selectivity ratio |
| --- | --- |
| CC(O)(Cn1cnc([N+](=O)[O-])n1)c1ccc(-n2ccnc2)cc1 (stereo not given) | > 173 |
| N#Cc1ccc(-c2ccc(NC(=O)Cn3cnc([N+](=O)[O-])n3)cc2)cc1 | 490 |
| O=C(Cn1cnc([N+](=O)[O-])n1)c1ccc(-c2ccccc2)cc1 | 125 |

System: not listed separately
Experiment: Metabolic stability in human microsomes assessed as compound remaining at 1 uM after 60 mins by LC/MS/MS analysis in absence of NADPH
Type: ADME, Microsome
Settings: read-out: Stability

| Compound | remaining at 1 h, 1 µM [%] |
| --- | --- |
| N#Cc1ccc(-c2ccc(NC(=O)Cn3cnc([N+](=O)[O-])n3)cc2)cc1 | 84.8 |

System: Trypanosoma brucei brucei
Experiment: Antitrypanosomal activity against bloodstream form of Trypanosoma brucei brucei
Type: functional, organism-based
Settings: not given

| Compound | IC50 [µM] |
| --- | --- |
| N#Cc1ccc(-c2ccc(NC(=O)Cn3cnc([N+](=O)[O-])n3)cc2)cc1 | 0.84 |

System: Trypanosoma brucei brucei
Experiment: Selectivity ratio of IC50 for bloodstream form of Trypanosoma brucei brucei to IC50 for bloodstream form of Trypanosoma brucei brucei overexpressing type-1 nitroreductase
Type: functional
Settings: not given

| Compound | Ratio IC50 |
| --- | --- |
| N#Cc1ccc(-c2ccc(NC(=O)Cn3cnc([N+](=O)[O-])n3)cc2)cc1 | 2 |

System: not listed separately
Experiment: Metabolic stability in mouse microsomes assessed as compound remaining at 1 uM after 60 mins by LC/MS/MS analysis in presence of NADPH
Type: ADME, Microsome
Settings: read-out: Stability

| Compound | remaining at 1 h, 1 µM [%] |
| --- | --- |
| N#Cc1ccc(-c2ccc(NC(=O)Cn3cnc([N+](=O)[O-])n3)cc2)cc1 | 79.4 |

Source: ChEMBL document CHEMBL3407483, “Novel 3-nitrotriazole-based amides and carbinols as bifunctional antichagasic agents” (J Med Chem, 2015)
